According to the PolyMetriX glass transition set:

| glass transition temperature | Compound |
| --- | --- |
| 155.00 °C | *Oc1ccc(C(C)(C)c2ccc(Oc3ccc(C(=O)c4ccc(*)cc4)cc3)cc2)cc1 (repeat unit) |
| 89.00 °C | *CCCCCCCCCCCN1C(=O)c2ccc(-c3ccc(-c4ccc5c(c4)C(=O)N(*)C5=O)cc3)cc2C1=O (repeat unit) |
| 106.00 °C | *CCCCCCNC(=O)C(OC)C(OC)C(=O)N* (repeat unit) |
| 32.90 °C | *O[Si](C)(C)CCC/N=C1C=C/C(=N/CCC[Si](*)(C)C)c2c(O)ccc(O)c2\1 (repeat unit) |
| 67.00 °C | *CCCCCCOC(=O)c1cc(OCCCCCCOc2ccc(/N=N/c3ccc(C#N)cc3)cc2)cc(C(=O)OCCCCCCN2C(=O)c3ccc(-c4ccc(-c5ccc6c(c5)C(=O)N(*)C6=O)cc4)cc3C2=O)c1 (repeat unit) |
| 182.00 °C | *CCCOc1ccc(-c2ccc(O*)c3ccccc23)c2ccccc12 (repeat unit) |
| 260.00 °C | *C(=O)c1ccc(C(=O)c2ccc3c(c2)C(=O)N(c2ccc(C(=O)c4ccc(C(=O)c5ccc(N6C(=O)c7ccc(*)cc7C6=O)cc5)cc4)cc2)C3=O)cc1 (repeat unit) |
| 220.00 °C | *Oc1c(-c2ccccc2)cc(*)cc1-c1ccccc1 (repeat unit) |
| 33.00 °C | *OC(=O)c1cccc(OCCCCCCCCOc2cccc(C(=O)OC3COC4C(*)COC34)c2)c1 (repeat unit) |
| 125.00 °C | *C(=O)Oc1ccc(OCCCCCCCCCCCCOc2ccc(OC(=O)c3ccc4c(c3)C(=O)N(c3ccc(Cc5ccc(N6C(=O)c7ccc(*)cc7C6=O)cc5)cc3)C4=O)cc2)cc1 (repeat unit) |
| 257.50 °C | *C(=O)Nc1cccc(NC(=O)/C=C/c2cccc(N3C(=O)c4ccc(*)cc4C3=O)c2)c1 (repeat unit) |
| 345.00 °C | *C(=O)Nc1ccc(Oc2ccc(NC(=O)c3ccc4c(c3)C(=O)N(c3ccc(Oc5ccc(N6C(=O)c7ccc(*)cc7C6=O)cc5-c5ccccc5)c(-c5ccccc5)c3)C4=O)cc2)cc1 (repeat unit) |
| 130.00 °C | *CC(*)c1ccc(COc2ccc(-c3ccc(-c4ccc(C)s4)c4nsnc34)cc2)cc1 (repeat unit) |
| 52.00 °C | *CCCCCOC(=O)Nc1ccc(C)c(NC(=O)O*)c1 (repeat unit) |
| 23.00 °C | *CC(*)(C)C(=O)OCCC(F)(F)C(F)(F)C(F)(F)C(F)(F)F (repeat unit) |
| 65.00 °C | *CCOCCOCCOC(=O)c1cc(/N=N/c2ccc(OCC)cc2)ccc1-c1ccc(/N=N/c2ccc(OCC)cc2)cc1C(=O)O* (repeat unit) |
| 256.00 °C | *c1ccc(OC(=O)c2cccc(C(=O)Oc3ccc(C4(*)C(=O)Nc5ccccc54)cc3)c2)cc1 (repeat unit) |
| 135.00 °C | *OC(COC(=O)c1cccc(-c2ccc(C(*)=O)cc2)c1)COc1ccc(/N=N/c2ccc(C#N)cc2)cc1 (repeat unit) |
| 310.00 °C | *Oc1ccc(C2(c3ccc(Oc4ccc(C(=O)c5c(C(=O)c6ccc(*)cc6)c(-c6ccccc6)c(-c6ccc7ccccc7c6)c(-c6ccc7ccccc7c6)c5-c5ccccc5)cc4)cc3)c3ccccc3-c3ccccc32)cc1 (repeat unit) |
| 230.80 °C | *Oc1ccc(S(=O)(=O)c2ccc(Oc3c(C)cc(C(c4cc(C)c(*)c(C)c4)(C(F)(F)F)C(F)(F)F)cc3C)c(Br)c2)cc1Br (repeat unit) |

| glass transition temperature | Compound |
| --- | --- |
| 178.00 °C | *c1ccc2c(c1)C(=O)N(c1ccc(Oc3ccc(N4C(=O)c5ccc(C(F)(F)C(F)(F)C(F)(F)C(F)(F)C(F)(F)C(F)(F)C(*)(F)F)cc5C4=O)cc3)cc1)C2=O (repeat unit) |
| 125.00 °C | *Oc1cccc(Oc2ccc(C(=O)c3ccc(*)cc3)cc2)c1 (repeat unit) |
| 190.00 °C | *c1ccc(-c2cc(CCCCCC)c(-c3ccc(-c4ccc5ccc6ccc(*)nc6c5n4)cc3)cc2CCCCCC)cc1 (repeat unit) |
| 112.00 °C | *CC(*)(C)C(=O)OC(COc1cc2ccccc2c2ccccc12)COc1cc2ccccc2c2ccccc12 (repeat unit) |
| 221.00 °C | *CC(c1ccccc1)C1C(=O)N(c2ccccc2)C(=O)C1* (repeat unit) |
| 62.80 °C | *O[Si](*)(C)CCCOc1ccc(C(=O)Oc2ccc(-c3ccc(OC(=O)c4cc(OCC)cc(OCC)c4)cc3)cc2)cc1 (repeat unit) |
| 94.00 °C | *Oc1c(OC)cc(-c2cc(OC)c(OC(=O)CCCCCCCCC(*)=O)c(OC)c2)cc1OC (repeat unit) |
| 236.00 °C | *c1ccc2c(c1)C(=O)N(c1ccc(Oc3ccc(C(=O)c4cccc(C(=O)c5ccc(Oc6ccc(N7C(=O)c8ccc(C(*)(C(F)(F)F)C(F)(F)F)cc8C7=O)cc6)cc5)c4)cc3)cc1)C2=O (repeat unit) |
| 390.00 °C | *c1ccc(C2(c3ccc(-c4cc(-c5ccccc5)c5cc(C6(c7ccc8nc(*)cc(-c9ccccc9)c8c7)c7ccccc7C(=O)c7ccccc76)ccc5n4)cc3)c3ccccc3C(=O)c3ccccc32)cc1 (repeat unit) |
| 60.00 °C | *CC(*)(C)C(=O)OCCCCCCN1CCN(c2ccc(/N=N/c3ccc([N+](=O)[O-])cc3)cc2)CC1 (repeat unit) |
| 255.00 °C | *C(=O)Nc1cc(NC(=O)c2cccc(*)n2)cc(-c2nnc(-c3ccccn3)o2)c1 (repeat unit) |
| 232.00 °C | *c1ccc(OC(=O)c2ccc(C(=O)Oc3ccc(-c4nc5ccccc5nc4*)cc3)cc2)cc1 (repeat unit) |
| 214.00 °C | *Oc1ccc(S(=O)(=O)c2ccc(Oc3ccc(-c4ccc(-c5ccc(*)c(C(F)(F)F)c5)cc4)cc3C(F)(F)F)cc2)cc1 (repeat unit) |
| 102.00 °C | *c1cc(CC(=O)OCCN(CC)c2ccc(/N=N/c3ccc([N+](=O)[O-])cc3)cc2)c(*)s1 (repeat unit) |
| 107.00 °C | *c1cccc(NC(=O)CCCCCCCCCCC(=O)Nc2cccc(S(*)(=O)=O)c2)c1 (repeat unit) |
| 328.00 °C | *c1ccc(-c2ccc(-n3c(=O)c4cc5c(=O)n(*)c(=O)c5cc4c3=O)cc2OC)c(OC)c1 (repeat unit) |
| 260.00 °C | *c1cccc(NC(=O)c2ccc(-c3ccc(C(=O)Nc4cccc(S(*)(=O)=O)c4)c(C)c3)cc2C)c1 (repeat unit) |
| 230.00 °C | *C(=O)Oc1ccc(OC(=O)c2ccc3c(c2)C(=O)N(c2ccc(Oc4ccc(Oc5ccc(N6C(=O)c7ccc(*)cc7C6=O)cc5)cc4)cc2)C3=O)cc1 (repeat unit) |
| 282.00 °C | *c1ccc(Oc2ccc(C(=O)c3ccc(Oc4ccc(-c5nc(-c6cccc(-c7nc(*)c(-c8ccccc8)[nH]7)c6)[nH]c5-c5ccccc5)cc4)cc3)cc2)cc1 (repeat unit) |

| Compound | glass transition temperature |
| --- | --- |
| *CC(*)C(=O)OCC(C)O (repeat unit) | -7.00 °C |
| *OC(C)C(=O)NC(C)C(*)=O (repeat unit) | 57.7 °C |
| *CC(*)(Cl)C(=O)OC (repeat unit) | 125.00 °C |
| *c1ccc2c(c1)C(=O)N(c1cccc(P(=O)(c3ccc(Oc4ccc(C56CC7CC(CC(C7)C5)C6)cc4)cc3)c3cccc(N4C(=O)c5ccc(C(*)(C(F)(F)F)C(F)(F)F)cc5C4=O)c3)c1)C2=O (repeat unit) | 298.00 °C |
